These results are taken from ChEMBL document CHEMBL1142251, “Identification of novel inhibitors of bacterial surface enzyme Staphylococcus aureus Sortase A” (Bioorg Med Chem Lett, 2008).

The test addresses T1, Sortase A (Staphylococcus aureus, UniProt Q9S446).
T1 sequence (Q9S446 whole entry): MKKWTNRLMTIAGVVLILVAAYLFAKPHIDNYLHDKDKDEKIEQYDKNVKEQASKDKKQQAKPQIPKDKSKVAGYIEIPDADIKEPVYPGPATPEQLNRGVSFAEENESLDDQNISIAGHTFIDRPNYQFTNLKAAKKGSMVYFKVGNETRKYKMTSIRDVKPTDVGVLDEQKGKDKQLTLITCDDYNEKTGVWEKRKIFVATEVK
Put plainly: Inhibition of Staphylococcus aures sortase A by FRET assay.
On to `Nc1nccc(-c2ccc(NC(=O)Nc3ccc(Cl)cc3)cc2)n1`, for which the midpoint of inhibition, the IC50, lay at 400 µM. To `COC(=O)c1cc(NC(=O)/C=C/c2ccco2)ccc1N1CCOCC1` belongs 58 µM; to `O=Cc1cc(NC(=O)/C=C/c2cccs2)ccc1N1CCOCC1`, 77 µM; to `COC(=O)c1cc(NC(=O)CCc2cccs2)ccc1N1CCOCC1`, more than 600 µM.

For `O=C(CCc1cccs1)Nc1ccc(N2CCOCC2)c(C(=O)O)c1`, the half-maximal inhibitory concentration (IC50) was more than 600 µM. In the case of `COC(=O)c1cc(NC(=O)CCc2ccco2)ccc1N1CCOCC1` it was more than 600 µM; in that of `CS(=O)(=NC=C(C#N)C(=O)c1cccs1)c1ccc(Oc2ccc([N+](=O)[O-])cn2)cc1` (stereo not given), 400 µM. In the case of `Cc1ccc(S(=O)(=O)NC(=O)Nc2ccc(NC(=O)c3ccccc3O)cc2)cc1` it was 226 µM. In the case of `N=C(N)N/N=C/c1ccc(/C=N/NC(=N)N)cc1` it was 275 µM; in that of `N#Cc1c(SCC(=O)c2ccc([N+](=O)[O-])cc2)[n-][s+]c1SCC(=O)c1ccc([N+](=O)[O-])cc1`, 97.3 µM. With `COC(=O)c1cc(NC(=O)/C=C/c2cccs2)ccc1N1CCOCC1`, half-maximal inhibition (IC50) required 71 µM. The compound `O=C(/C=C/c1cccs1)Nc1ccc(N2CCOCC2)c(CO)c1` yielded an IC50 of 73 µM. To `O=C(/C=C/c1ccco1)Nc1ccc(N2CCOCC2)c(C(=O)O)c1` belongs 181 µM; to `O=C(/C=C/c1cccs1)Nc1ccc(N2CCOCC2)c(C(=O)O)c1`, 75 µM; to `O=C(O)/C=C/C(=O)Nc1ccc(NC(=O)c2ccccc2O)cc1`, 125 µM.

On to `CS(=O)(=NC=C(C#N)C(=O)c1ccco1)c1ccc(Oc2ccc([N+](=O)[O-])cn2)cc1` (stereo not given), for which the IC50 was determined as 150 µM.

On to `O=Cc1cc(NC(=O)/C=C/c2ccco2)ccc1N1CCOCC1`, for which the IC50 came to 107 µM.

On to `O=C(CCc1ccco1)Nc1ccc(N2CCOCC2)c(C(=O)O)c1`, for which the IC50 was more than 600 µM.

`NC(=O)c1cc(NC(=O)/C=C/c2cccs2)ccc1N1CCOCC1` gave an IC50 of 105 µM. In turn, `O=C(/C=C/c1ccco1)Nc1ccc(N2CCOCC2)c(CO)c1` showed an IC50 of 111 µM.

The IC50 is the point on the concentration scale where inhibition reaches its midpoint. Higher therefore signals lower potency.
